Assay results reported in patent US11582970B2, “2-aminoimidazole-phenyl derivatives useful for controlling microbial growth” (NORTH CAROLINA STATE UNIVERSITY, priority 2017, dated 2023).

Key:
Format in all cases: cell-based
[1] = system: A. baumannii AB5075; assay: MIC of carbapenems in presence and absence of 2-aminoimidazole compounds; conditions: Acinetobacter baumannii, no 2-AI compound (None), read-out: MIC of meropenem
Description: (§1) The minimal inhibitory concentration (MIC) values of imipenem (I); meropenem (M) and doripenem (D) in the presence and absence of 2-aminoimidazole compounds are provided in Table 1. The concentration of each compound used in μM in the MIC assay is shown in parentheses.

[2] = system: A. baumannii ATCC BAA-1605; assay: as above; conditions: Acinetobacter baumannii, no 2-AI compound (None), read-out: MIC of meropenem
Description: as §1

[3] = system: K. pneumoniae ATCC BAA-1705; assay: as above; conditions: Klebsiella pneumoniae, no 2-AI compound (None), read-out: MIC of meropenem
Description: as §1

[4] = system: K. pneumoniae ATCC BAA-2146; assay: as above; conditions: Klebsiella pneumoniae, no 2-AI compound (None), read-out: MIC of meropenem
Description: as §1

[5] = system: A. baumannii (Ab) AR# 33; assay: MIC of meropenem in combination with compound, CDC carbapenem resistant strain; conditions: Acinetobacter baumannii, no compound (None), read-out: Minimum Inhibitory Concentration of Meropenem
Protocol: (§2) EXAMPLE 2: Six compounds were assessed for their activity in combination with meropenem against carbapenem resistant strains of A. baumannii (Ab), K. pneumoniae (Kp), and E. coli acquired from the Center for Disease Control (CDC). AR #—assigned AR-BANK number from the CDC.

[6] = system: A. baumannii (Ab) AR# 35; assay: as above; conditions: Acinetobacter baumannii, no compound (None), read-out: Minimum Inhibitory Concentration of Meropenem
Protocol: as §2

[7] = system: A. baumannii (Ab) AR# 36; assay: as above; conditions: Acinetobacter baumannii, no compound (None), read-out: Minimum Inhibitory Concentration of Meropenem
Protocol: as §2

[8] = system: A. baumannii (Ab) AR# 37; assay: as above; conditions: Acinetobacter baumannii, no compound (None), read-out: Minimum Inhibitory Concentration of Meropenem
Protocol: as §2

[9] = system: A. baumannii (Ab) AR# 45; assay: as above; conditions: Acinetobacter baumannii, no compound (None), read-out: Minimum Inhibitory Concentration of Meropenem
Protocol: as §2

[10] = system: A. baumannii (Ab) AR# 52; assay: as above; conditions: Acinetobacter baumannii, no compound (None), read-out: Minimum Inhibitory Concentration of Meropenem
Protocol: as §2

[11] = system: A. baumannii (Ab) AR# 56; assay: as above; conditions: Acinetobacter baumannii, no compound (None), read-out: Minimum Inhibitory Concentration of Meropenem
Protocol: as §2

[12] = system: A. baumannii (Ab) AR# 63; assay: as above; conditions: Acinetobacter baumannii, no compound (None), read-out: Minimum Inhibitory Concentration of Meropenem
Protocol: as §2

[13] = system: A. baumannii (Ab) AR# 70; assay: as above; conditions: Acinetobacter baumannii, no compound (None), read-out: Minimum Inhibitory Concentration of Meropenem
Protocol: as §2

[14] = system: A. baumannii (Ab) AR# 83; assay: as above; conditions: Acinetobacter baumannii, no compound (None), read-out: Minimum Inhibitory Concentration of Meropenem
Protocol: as §2

[15] = system: A. baumannii (Ab) AR# 88; assay: as above; conditions: Acinetobacter baumannii, no compound (None), read-out: Minimum Inhibitory Concentration of Meropenem
Protocol: as §2

[16] = system: E. coli AR# 48; assay: as above; conditions: Escherichia coli, no compound (None), read-out: Minimum Inhibitory Concentration of Meropenem
Protocol: as §2

[17] = system: E. coli AR# 55; assay: as above; conditions: Escherichia coli, no compound (None), read-out: Minimum Inhibitory Concentration of Meropenem
Protocol: as §2

[18] = system: K. pneumoniae (Kp) AR# 40; assay: as above; conditions: Klebsiella pneumoniae, no compound (None), read-out: Minimum Inhibitory Concentration of Meropenem
Protocol: as §2

[19] = system: K. pneumoniae (Kp) AR# 41; assay: as above; conditions: Klebsiella pneumoniae, no compound (None), read-out: Minimum Inhibitory Concentration of Meropenem
Protocol: as §2

[20] = system: K. pneumoniae (Kp) AR# 68; assay: as above; conditions: Klebsiella pneumoniae, no compound (None), read-out: Minimum Inhibitory Concentration of Meropenem
Protocol: as §2

[21] = system: K. pneumoniae (Kp) AR# 98; assay: as above; conditions: Klebsiella pneumoniae, no compound (None), read-out: Minimum Inhibitory Concentration of Meropenem
Protocol: as §2

- MIC [1]: 32 µg/mL
- MIC [2]: 32 µg/mL
- MIC [3]: 64 µg/mL
- MIC [4]: 256 µg/mL
- MIC [5]: 128 µg/mL
- MIC [6]: 128 µg/mL
- MIC [7]: 128 µg/mL
- MIC [8]: 256 µg/mL
- MIC [9]: 16 µg/mL
- MIC [10]: 8 µg/mL
- MIC [11]: 32 µg/mL
- MIC [12]: 128 µg/mL
- MIC [13]: 8 µg/mL
- MIC [14]: 256 µg/mL
- MIC [15]: 512 µg/mL
- MIC [16]: 256 µg/mL
- MIC [17]: 256 µg/mL
- MIC [18]: 1020 µg/mL
- MIC [19]: 64 µg/mL
- MIC [20]: 512 µg/mL
- MIC [21]: 128 µg/mL
Structure (SMILES): C[C@@H](O)[C@H]1C(=O)N2C(C(=O)O)=C(S[C@@H]3CN[C@H](C(=O)N(C)C)C3)[C@H](C)[C@H]12 [M, meropenem, reference compound]
